Measurements from US20110166297A1, “MOLECULARLY IMPRINTED SMART POLYMERS (MISPs)” (Sailo Nanotechnologies Ltd., priority 2008, published 2011).

Assay: Solubility of Erg-TAD-Py (dissolved concentration by HPLC)
Type: physicochemical

With `CC(C)[C@@H](C)/C=C/[C@@H](C)C1CCC2C34C=CC5(C[C@@H](O)CC[C@]5(C)C3CC[C@]12C)n1c(=O)n(CCCc2ccc3ccc5cccc6ccc2c3c56)c(=O)n14` (some centres unmarked) [Erg-TAD-Py, Ergosterol-triazolinedione-pyrene] the “Concentration of dissolved Erg-TAD-Py” value (10% DMSO in serum (inactivated fetal calf serum)) was 7800 ng/mL, the “Concentration of dissolved Erg-TAD-Py” value (10% DMSO in water) was 700 ng/mL and the “Concentration of dissolved Erg-TAD-Py” value (30% DMSO in serum (inactivated fetal calf serum)) was 8400 ng/mL. For the same molecule, the “Concentration of dissolved Erg-TAD-Py” value (30% DMSO in water) was 6700 ng/mL, the “Concentration of dissolved Erg-TAD-Py” value (50% DMSO in serum (inactivated fetal calf serum)) was 6800 ng/mL and the “Concentration of dissolved Erg-TAD-Py” value (50% DMSO in water) was 6000 ng/mL. For the same molecule, the “Concentration at which ethanol dissolves Erg-TAD-Py” value was 50000 ng/mL and the “Concentration at which ethanol dissolves Erg-TAD-Py” value (molar equivalent of 0.05 mg/ml) was “about 60 uM”.
